Target: T1, hα4 and β1 integrins (VLA-4) (Homo sapiens, UniProt P05556+P13612)
T1 construct: expressed in transfected cells; host or cells: CHO cells
Experiment: In vitro evaluation: inhibition of binding of CHO cells expressing hα4 and β1 integrins to Eu3+-hVCAM-1 D1D7-IgG
Details: ligand Eu3+-hVCAM-1 D1D7-IgG 2 nM, Ki calculated from IC50
Method: CHO cells which were forced to be expressed by transduction of hα4 and β1 integrins are seeded (3×10^4 cells/100 μl/well) on a Costar 3599 plate, and cultured for 2 days. A medium is washed with a buffer A* two times, and Eu^3+-hVCAM-1 D1D7-IgG which was diluted with an assay buffer A** to 2 nM is added at 50 μl/well. A test substance which was diluted with 2% DMSO-assay buffer (in the presence or the absence of 6% human serum albumin) is added at 50 μl/well (A solution which was separately diluted is added to a well in which Scatchard analysis is performed), this is stirred with a plate mixer for 5 minutes, and allowed to stand at room temperature for 1 hour. Thereafter, this is washed with a buffer A four times, a potentiating reagent (manufactured by DELFIA) is added at 100 μl/well, this is shaken for 5 minutes using a plate mixer, and a fluorescence intensity is measured with a time-resolved fluorometer (DELFIA Wallac). IC50 (concentration at which binding of CHO cell and Eu^3+-hVCAM-1 D1D7-IgG is inhibited by 50%) of a test substance is obtained from an integration rate obtained from a calculation equation: [(FT−FNS)−(FI−FNS)]/[(FT−FNS)]×100, wherein FT indicates a fluorescence intensity of a well not containing a test substance, FNS indicates a fluorescence intensity of a well not containing a test substance and hVCAM-1 D1D7-IgG, and FI indicates a fluorescence intensity containing a test substance. A Kd value showing strength of binding and Bmax (maximum binding amount) were presumed in a range of 0.06 to 20 nM according to the Scachard analysis method. [formula]
A Ki value was calculated according to the above equation ([L] is ligand concentration)
[* buffer A: 25 mM HEPES (pH 7.5), 150 mM NaCl, 1 mM Ca^2+, 1 mM Mg^2+, 4 mM Mn^2+; ** assay buffer: 25 mM HEPES (pH 7.5), 150 mM NaCl, 1 mM Ca^2+, 1 mM Mg^2+, 4 mM Mn^2+, 0.1% BSA, 20 μM DTPA, with/without 6% ALBUMIN, HUMAN SERUM (C/NA-1653, SIGMA)]

T1 sequence (P13612 34-1032): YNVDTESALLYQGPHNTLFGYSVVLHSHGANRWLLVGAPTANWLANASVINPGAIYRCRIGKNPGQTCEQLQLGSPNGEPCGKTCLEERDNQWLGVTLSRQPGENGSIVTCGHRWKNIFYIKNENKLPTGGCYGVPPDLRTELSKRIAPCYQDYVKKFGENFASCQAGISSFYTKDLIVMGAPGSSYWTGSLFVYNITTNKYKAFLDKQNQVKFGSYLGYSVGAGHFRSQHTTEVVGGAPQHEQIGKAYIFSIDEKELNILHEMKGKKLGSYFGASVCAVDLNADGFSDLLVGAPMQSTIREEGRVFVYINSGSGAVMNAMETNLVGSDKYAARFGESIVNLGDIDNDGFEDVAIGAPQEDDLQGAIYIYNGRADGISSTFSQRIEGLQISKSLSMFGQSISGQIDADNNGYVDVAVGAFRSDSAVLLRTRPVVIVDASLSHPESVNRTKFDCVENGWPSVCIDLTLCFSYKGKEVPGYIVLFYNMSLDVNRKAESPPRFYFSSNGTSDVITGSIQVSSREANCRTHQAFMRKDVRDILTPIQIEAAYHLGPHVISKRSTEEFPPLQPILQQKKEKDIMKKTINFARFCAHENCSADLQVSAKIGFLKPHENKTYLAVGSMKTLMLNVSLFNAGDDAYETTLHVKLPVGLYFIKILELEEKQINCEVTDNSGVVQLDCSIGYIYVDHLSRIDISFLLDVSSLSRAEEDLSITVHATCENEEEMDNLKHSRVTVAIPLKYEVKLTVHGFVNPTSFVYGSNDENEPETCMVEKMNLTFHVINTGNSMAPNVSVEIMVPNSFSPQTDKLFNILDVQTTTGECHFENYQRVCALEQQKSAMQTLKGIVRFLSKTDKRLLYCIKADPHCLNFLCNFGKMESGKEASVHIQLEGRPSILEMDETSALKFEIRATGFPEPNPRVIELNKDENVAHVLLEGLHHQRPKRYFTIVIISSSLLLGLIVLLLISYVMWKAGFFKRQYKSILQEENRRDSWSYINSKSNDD
T1 sequence (P05556 21-798): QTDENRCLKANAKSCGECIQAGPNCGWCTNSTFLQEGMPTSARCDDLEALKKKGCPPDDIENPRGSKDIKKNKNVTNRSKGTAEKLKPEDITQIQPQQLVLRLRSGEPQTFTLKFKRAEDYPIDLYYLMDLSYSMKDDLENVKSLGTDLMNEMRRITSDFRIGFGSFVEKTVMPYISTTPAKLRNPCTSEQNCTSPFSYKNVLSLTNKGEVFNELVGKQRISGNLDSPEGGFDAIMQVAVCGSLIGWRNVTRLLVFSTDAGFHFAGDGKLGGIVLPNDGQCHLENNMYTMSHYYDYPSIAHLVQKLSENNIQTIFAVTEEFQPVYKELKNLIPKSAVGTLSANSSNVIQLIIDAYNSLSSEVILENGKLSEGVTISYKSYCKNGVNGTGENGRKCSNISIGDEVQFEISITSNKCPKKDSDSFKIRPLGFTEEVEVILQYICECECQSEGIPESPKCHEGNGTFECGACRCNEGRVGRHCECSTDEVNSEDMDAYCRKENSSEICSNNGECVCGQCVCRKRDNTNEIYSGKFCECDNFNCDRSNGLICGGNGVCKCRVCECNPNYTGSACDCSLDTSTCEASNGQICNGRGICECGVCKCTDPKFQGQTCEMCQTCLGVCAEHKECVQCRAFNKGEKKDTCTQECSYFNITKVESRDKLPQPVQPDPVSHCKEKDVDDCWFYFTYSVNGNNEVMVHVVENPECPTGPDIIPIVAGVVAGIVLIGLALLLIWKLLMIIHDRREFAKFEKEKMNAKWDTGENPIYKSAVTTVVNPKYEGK

| Structure (SMILES) | Ki [nM] |
| --- | --- |
| O=C(O)CCc1cnc([C@@H]2C[C@H](OC3CCC3)CN2C(=O)Cc2cc(Cl)c(NC(=O)c3coc4ccccc34)cc2Cl)s1 [Example 42, 3-[2-[1-[4-[(1-Benzofuran-3-ylcarbonyl)amino]-2,5-dichlorophenylacetyl]-(4S)-cyclobutoxy-(2S)-pyrrolidinyl]-5-thiazolyl]propionic acid] | 7 |
| CON(C)[C@H]1C[C@@H](c2ncc(CCC(=O)O)s2)N(C(=O)Cc2cc(Cl)c(NC(=O)c3cn(C)c4ccccc34)cc2Cl)C1 [Example 128, 3-[3-[1-[2,5-Dichloro-4-(1-methyl-3-indolylcarbonylamino)phenylacetyl]-(4S)—N,O-dimethylhydroxylamino-(2S)-pyrrolidinyl]-5-thiazolyl]propionic acid] | 6.7 |
| O=C(O)CCc1cnc([C@@H]2[C@@H](O)CCN2C(=O)Cc2cc(Cl)c(NC(=O)c3csc4ccccc34)cc2Cl)s1 [Example 123] | 3.5 |
| CCOC[C@@H]1CC[C@@H](c2ncc(CCC(=O)O)s2)N1C(=O)Cc1cc(Cl)c(NC(=O)c2cn(C)c3ccccc23)cc1Cl [Example 48, 3-[2-[1-[2,5-Dichloro-4-(1-methyl-3-indolylcarbonylamino)phenylacetyl]-(5S)-ethoxymethyl-(2S)-pyrrolidinyl]-5-thiazolyl]propionic acid] | 36 |
| O=C(O)CCc1cnc([C@@H]2C[C@H](F)CN2C(=O)Cc2cc(Cl)c(NC(=O)c3csc4ccccc34)cc2F)s1 [Example 21, 3-[2-[1-[[4-[(3-Benzo[b]thienylcarbonyl)amino]-5-chloro-2-fluorophenyl]acetyl]-(4S)-fluoro-(2S)-pyrrolidinyl]-5-thiazolyl]propionic acid] | 0.61 |
| Cn1cc(C(=O)Nc2cc(Cl)c(CC(=O)N3C[C@@H](Oc4cccnc4)C[C@H]3c3ncc(CCC(=O)O)s3)cc2Cl)c2ccccc21 [Example 44, 3-[2-[1-[2,5-Dichloro-4-(1-methyl-3-indolylcarbonylamino)phenylacetyl]-(4S)-(3-pyridyloxy)-(2S)-pyrrolidinyl]-5-thiazolyl]propionic acid] | 3.9 |
| O=C(O)CCc1cnc([C@@H]2C[C@H](F)CN2C(=O)Cc2cc(Cl)c(NC(=O)c3coc4ccccc34)cc2F)s1 [Example 22, 3-[2-[1-[[4-[(1-Benzofuran-3-ylcarbonyl)amino]-5-chloro-2-fluorophenyl]acetyl]-(4S)-fluoro-(2S)-pyrrolidinyl]-5-thiazolyl]propionic acid] | 0.23 |
| O=C(O)CCc1cnc([C@@H]2C[C@H](OC3CCC3)CN2C(=O)Cc2cc(Cl)c(NC(=O)c3csc4ccccc34)cc2F)s1 [Example 41] | 2.2 |
| Cn1cc(C(=O)Nc2cc(Cl)c(CC(=O)N3C[C@@H](F)C[C@H]3c3ncc(CCC(=O)O)s3)cc2Cl)c2ccccc21 [Example 18, 3-[2-[1-[2,5-Dichloro-4-(1-methyl-3-indolylcarbonylamino)phenylacetyl]-(4S)-fluoro-(2S)-pyrrolidinyl]-5-thiazolyl]propionic acid] | 1.1 |
| CCO[C@H]1CCN(C(=O)Cc2cc(Cl)c(NC(=O)c3csc4ccccc34)cc2F)[C@@H]1c1ncc(CCC(=O)O)s1 [Example 93] | 2.9 |
| CCO[C@H]1CCN(C(=O)Cc2cc(Cl)c(NC(=O)c3coc4ccccc34)cc2F)[C@@H]1c1ncc(CCC(=O)O)s1 [Example 95] | 4.2 |
| COC[C@@H]1CC[C@@H](c2ncc(CCC(=O)O)s2)N1C(=O)Cc1cc(Cl)c(NC(=O)c2cn(C)c3ccccc23)cc1Cl [Example 54, 3-[2-[1-[2,5-Dichloro-4-(1-methyl-3-indolylcarbonylamino)phenylacetyl]-(5S)-methoxymethyl-(2S)-pyrrolidinyl]-5-thiazolyl]propionic acid] | 24 |
| CCOC[C@@H]1CC[C@@H](c2ncc(CCC(=O)O)s2)N1C(=O)Cc1cc(Cl)c(NC(=O)c2csc3ccccc23)cc1F [Example 49, 3-[2-[1-[4-[(3-Benzo[b]thienylcarbonyl)amino]-5-chloro-2-fluorophenylacetyl]-(5S)-ethoxymethyl-(2S)-pyrrolidinyl]-5-thiazolyl]propionic acid] | 22 |

More lines, now with the values ahead:

| Ki [nM] | Structure (SMILES) |
| --- | --- |
| 17 | CCO[C@H]1CCN(C(=O)Cc2cc(Cl)c(NC(=O)c3coc4ccccc34)cc2Cl)[C@@H]1c1ncc(CCC(=O)O)o1 [Example 102] |
| 22 | COc1ccc(F)cc1Nc1nc2ccc(CC(=O)N3C[C@@H](OC)C[C@H]3c3ncc(CCC(=O)O)o3)c(F)c2o1 [Example 16, 3-[2-[1-[[7-Fluoro-2-(5-fluoro-2-methoxyphenylamino)-1,3-benzoxazol-6-yl]acetyl]-(4S)-methoxy-(2S)-pyrrolidinyl]-5-oxazolyl]propionic acid] |
| 2 | CO[C@H]1C[C@@H](c2cc(CCC(=O)O)on2)N(C(=O)Cc2cc(Cl)c(NC(=O)c3csc4ccccc34)cc2F)C1 [Example 33, 3-[3-[1-[[4-[(3-Benzo[b]thienylcarbonyl)amino]-5-chloro-2-fluorophenyl]acetyl]-(4S)-methoxy-(2S)-pyrrolidinyl]-5-isoxazolyl]propionic acid] |
| 9.8 | CCO[C@H]1CCN(C(=O)Cc2cc(Cl)c(NC(=O)c3coc4ccccc34)cc2F)[C@@H]1c1ncc(CCC(=O)O)o1 [Example 101] |
| 0.5 | CO[C@H]1C[C@@H](c2ncc(CCC(=O)O)s2)N(C(=O)Cc2ccc3nc(-c4cn(C)c5ccccc45)oc3c2F)C1 [Example 11, 3-[2-[1-[7-Fluoro-2-(1-methylindol-3-yl)-1,3-benzoxazol-6-ylacetyl]-(4S)-methoxy-(2S)-pyrrolidinyl]-5-thiazolyl]propionic acid] |
| 2.3 | Cc1ccc(F)cc1Nc1nc2ccc(CC(=O)N3[C@H](c4ncc(CCC(=O)O)s4)C[C@@H]4CCCC[C@@H]43)c(F)c2o1 [Example 62, 3-[2-[1-[7-Fluoro-2-(5-fluoro-2-methylphenyl)amino-6-benzoxazolylacetyl]-(2S)-octahydroindolyl]-5-thiazolyl]propionic acid] |
| 34 | CCOC[C@@H]1CC[C@@H](c2ncc(CCC(=O)O)s2)N1C(=O)Cc1ccc2nc(Nc3cc(F)ccc3OC)oc2c1F [Example 52, 3-[2-[(5S)-ethoxymethyl-1-[7-fluoro-2-(5-fluoro-2-methoxyphenylamino)-6-benzoxazolylacetyl]-(2S)-pyrrolidinyl]-5-thiazolyl]propionic acid] |
| 4.5 | CCO[C@H]1CCN(C(=O)Cc2ccc3nc(Nc4ccccc4C)oc3c2)[C@@H]1c1ncc(CCC(=O)O)o1 [Example 104, 3-[2-[1-[[2-(2-Methylphenyl)amino-6-benzoxazolyl]acetyl]-(3S)-ethoxy-(2S)-pyrrolidinyl]-5-oxazolyl]propionic acid] |
| 5.8 | CO[C@H]1C[C@@H](c2cc(CCC(=O)O)on2)N(C(=O)Cc2cc(Cl)c(NC(=O)c3cn(C)c4ccccc34)cc2F)C1 [Example 31, 3-[3-[1-[5-Chloro-2-fluoro-4-(1-methyl-3-indolylcarbonyl)aminophenylacetyl]-(4S)-methoxy-(2S)-pyrrolidinyl]-5-isoxazolyl]propionic acid] |
| 18 | CO[C@H]1C[C@@H](c2ncc(CCC(=O)O)o2)N(C(=O)Cc2cc(Cl)c(NC(=O)c3cn(C)c4ccccc34)cc2Cl)C1 [Example 12, 3-[2-[1-[2,5-Dichloro-4-(1-methyl-3-indolylcarbonylamino)phenylacetyl]-(4S)-methoxy-(2S)-pyrrolidinyl]-5-oxazolyl]propionic acid] |

— patent publication US20070232601A1, “Vla-4 Inhibitor” (priority 2004, published 2007)
